In one experiment the test system is PBMCs. The experiment in a line: Clinical pharmacodynamic target modulation in PBMCs. The settings on record: in the clinic; recommended Phase 2 dose 60 mg BID. Type of experiment: in vivo.
For experiment [1], the system named is BBGA087 patient derived gastric cancer xenograft. Briefly: Efficacy of pamiparib and oxaliplatin + 5-FU on tumor growth in a patient derived gastric cancer xenograft. The format is in vivo, female nod-scid mice. The settings on record: BBGA087 model, pamiparib 6 mg/kg p.o. BID. On the procedure:
(§1) Female nod-scid mice were subcutaneously implanted with BBGA087 patient derived gastric tumor tissue fragments (3×3×3 mm3) in the right flank. After inoculation, tumor volume and body weight were measured twice weekly and calculated using the formula: V=0.5×(a×b2) where a and b were the long and short diameters of the tumor, respectively. When the average tumor size reached 200 mm3, animals were randomly assigned into 3 groups. Animals were treated with vehicle (0.5% methylcellulose, 0.5% MC), pamiparib, oxaliplatin plus 5-Fluorouracil (5-FU), respectively. BGB290 was administered at 6 mg/kg by oral gavage (p.o.) twice daily (BID), oxaliplatin was administered by intraperitoneal (i.p.) injection once per week (QW) for three weeks, and 5-FU was administered by intraperitoneal (i.p.) injection once daily with 5 days per week.
(§2) Data is presented as mean tumor volume+standard error of the mean (SEM). Tumor growth inhibition (TGI) is calculated using the following formula: […]
(In general: A xenograft is tissue or cells of one species grown in another, often human tumour cells in immunodeficient mice.)

Experiment [2] shares this test system. Briefly: Pamiparib as maintenance therapy after oxaliplatin + 5-FU treatment in the xenograft model. The format is in vivo, female nod-scid mice. On the procedure: as §1
After 28 days, mice treated with oxaliplatin and 5-FU were reallocated into 2 groups according to the tumor volume, and were treated with either placebo (0.5% MC) or pamiparib as maintenance therapy.
as §2

The subject of another experiment is gastric cancer. The following applies: olaparib added to second-line chemotherapy with paclitaxel; phase III; cited from earlier work.

SMILES strings stand for the structures.

With `C[C@]12CCCN1CC1=NNC(=O)c3cc(F)cc4[nH]c2c1c34` [pamiparib], the “dose level achieving maximum pharmacodynamic target modulation in PBMCs” value in the experiment with PBMCs amounted to 10 mg BID. In addition, in experiment [1] (oxaliplatin 5 mg/kg + 5-FU 15 mg/kg i.p.), the “Mean Tumor Volume on Day 28” value was determined as 921 mm3. Also, the “TGI (%) on Day 28” value in experiment [1] (oxaliplatin 5 mg/kg i.p. QW*3 plus 5-FU 15 mg/kg i.p. QD*5/week*3) is listed as 42%. Further, in experiment [2] (maintenance therapy 6 mg/kg BID after 28 days of oxaliplatin + 5-FU, Day 32), the “Mean Tumor Volume on Day 32” value amounted to 222 mm3. Further, the “TGI (%) on Day 32” value in experiment [2] (maintenance therapy 6 mg/kg BID after 28 days of oxaliplatin + 5-FU, versus placebo (0.5% MC), Day 32) is 96%. In experiment [2] (pamiparib 6 mg/kg BID as maintenance versus placebo (0.5% MC) after oxaliplatin + 5-FU), the “tumor relapse on maintenance therapy” value is on record as “tumor relapse was delayed”.
`O=C(c1cc(Cc2n[nH]c(=O)c3ccccc23)ccc1F)N1CCN(C(=O)C2CC2)CC1` [olaparib]: the “overall survival (OS) compared with paclitaxel and placebo” value with gastric cancer was “failed to improve overall survival”.
